In patent publication US7256187B2, “Rifamycin C-11 oxime derivatives effective against drug-resistant microbes” (Cumbre Pharmaceuticals Inc., priority 2004, dated 2007):
Converted amounts (≈) assume the structure as drawn.

Assays:
Type in all cases: cell-based
[1] = system: Haemophilus influenzae ATCC10211; assay: MIC, microbroth dilution; conditions: Haemophilus influenzae ATCC10211, rifS; read-out: Antimicrobial activity (MIC)
[2] = system: Mycobacterium smegmatis ATCC700084; assay: MIC, microbroth dilution; conditions: Mycolicibacterium smegmatis; Mycobacterium smegmatis ATCC700084, rifS; read-out: Antimicrobial activity (MIC)
[3] = system: Staphylococcus aureus ATCC29213; assay: MIC, microbroth dilution; conditions: Staphylococcus aureus ATCC29213, rifS; read-out: Antimicrobial activity (MIC)
[4] = system: Staphylococcus aureus ATCC29213 rpoB^H418Y; assay: microbe, parasite or virus in culture; conditions: Staphylococcus aureus ATCC29213 rpoB^H418Y, rifR; read-out: Antimicrobial activity (MIC)
Protocol: (§1) Representative compounds were assayed for antimicrobial activity as follows: Minimum Inhibitory Concentrations (“MICs”) were determined by the microbroth dilution method as per NCCLS guidelines (National Committee for Clinical Laboratory Standards. 2000. Methods for dilution antimicrobial susceptibility tests for bacteria that grow aerobically, 5th ed. M7-A5. National Committee for Clinical Laboratory Standards, Wayne, Pa.), except that all growth incubations were conducted at 37° C. Bacterial cultures were tested in the following bacteriological media: S. aureus, S. epidermidis, and E. coli in Cation-Adjusted Mueller-Hinton Broth, S. pneumoniae in THY Broth supplemented with 1 mg/mL catalase under 5% CO2 atmosphere, S. pyogenes in THY Broth, E. faecalis in BHI Broth, H. influenzae in BHI Broth supplemented with 0.75 μL of 1 mg/mL NAD and 150 μL of 1 mg/ml hematin per 5 mL, and M. smegmatis in Middlebrook Broth plus ADC Enrichment.
(§2) S. aureus ATCC 29213 RpoB^H418Y is a rifampin-resistant strain with a mutation in the RpoB gene of RNA polymerase. […] S. aureus EN1252a gyrA^S84L grlA^S80F is a quinolone-resistant strain due to double gene mutations of DNA gyrase and topoisomerase IV.

[5] = system: Staphylococcus aureus ATCC29213 rpoB^D417Y; assay: microbe, parasite or virus in culture; conditions: Staphylococcus aureus ATCC29213 rpoB^D417Y, rifR; read-out: Antimicrobial activity (MIC)
Protocol: as §1, §2

[6] = system: Staphylococcus aureus EN1252a gyrA^S84L grlA^S80F; assay: microbe, parasite or virus in culture; conditions: Staphylococcus aureus EN1252a gyrA^S84L grlA^S80F, cipR; read-out: Antimicrobial activity (MIC)
Protocol: as §1, §2

[7] = system: Enterococcus faecalis ATCC29212; assay: MIC, microbroth dilution; conditions: Enterococcus faecalis ATCC29212, rifS; read-out: Antimicrobial activity (MIC)
[8] = system: Escherichia coli ATCC25922; assay: MIC, microbroth dilution; conditions: Escherichia coli ATCC25922, rifS; read-out: Antimicrobial activity (MIC)
[9] = system: Streptococcus pyogenes ATCC19615; assay: MIC, microbroth dilution; conditions: Streptococcus pyogenes ATCC19615, rifS; read-out: Antimicrobial activity (MIC)
[10] = system: Staphylococcus epidermidis ATCC12228; assay: MIC, microbroth dilution; conditions: Staphylococcus epidermidis ATCC12228, rifS; read-out: Antimicrobial activity (MIC)
[11] = system: Streptococcus pneumoniae ATCC6303; assay: MIC, microbroth dilution; conditions: Streptococcus pneumoniae ATCC6303, rifS; read-out: Antimicrobial activity (MIC)

SMILES | MIC [1] [µg/mL] | MIC [2] [µg/mL] | MIC [3] [µg/mL] | MIC [4] [µg/mL] | MIC [5] [µg/mL] | MIC [6] [µg/mL] | MIC [7] [µg/mL] | MIC [8] [µg/mL] | MIC [9] [µg/mL] | MIC [10] [µg/mL] | MIC [11] [µg/mL]
COc1c(N2CCN(/N=C/c3c4c(O)c5c(O)c(C)c6c(c5c3O)/C(=N/O)[C@@](C)(O/C=C/[C@H](OC)[C@@H](C)[C@@H](OC(C)=O)[C@H](C)[C@H](O)[C@H](C)[C@@H](O)[C@@H](C)/C=C/C=C(/C)C(=O)N4)O6)C(C)C2)c(F)cc2c(=O)c(C(=O)O)cn(C3CC3)c12 (mixture of isomers) [Example 40, (R/S)-3-[4-(3-Carboxy-1-cyclopropyl-6-fluoro-8-methoxy-4-oxo-1,4-dihydroquinolin-7-yl)-2-methyl-piperazin-1-yl-aminomethylenyl]-11-deoxy-11-hydroxyiminorifamycin SV] | 0.03 to 2 (≈ 0.0269 to 1.8 µM) | 0.5 to 64 (≈ 0.449 to 57.5 µM) | 0.004 to 0.5 (≈ 0.00359 to 0.449 µM) | 0.125 to 16 (≈ 0.112 to 14.4 µM) | 0.25 to 32 (≈ 0.225 to 28.7 µM) | 0.004 to 0.5 (≈ 0.00359 to 0.449 µM) | 2 to 32 (≈ 1.8 to 28.7 µM) | 0.125 to 8 (≈ 0.112 to 7.19 µM) | 0.0005 to 0.063 (≈ 0.000449 to 0.0566 µM) | 0.0005 to 0.063 (≈ 0.000449 to 0.0566 µM) | 0.0002 to 0.125 (≈ 0.00018 to 0.112 µM)
CO[C@H]1/C=C/O[C@@]2(C)Oc3c(C)c(O)c4c(c3/C2=N/O)/C(=N/O)C=C(NC(=O)/C(C)=C\C=C\[C@H](C)[C@H](O)[C@@H](C)[C@@H](O)[C@@H](C)[C@H](OC(C)=O)[C@@H]1C)C4=O [Example 4, 4, 11-Dideoxy-4,11-dihydroxyiminorifamycin S] | 0.03 to 2 (≈ 0.0413 to 2.76 µM) | 0.5 to 64 (≈ 0.689 to 88.2 µM) | 0.004 to 0.5 (≈ 0.00551 to 0.689 µM) | 0.125 to 16 (≈ 0.172 to 22 µM) | 0.25 to 32 (≈ 0.344 to 44.1 µM) | 0.004 to 0.5 (≈ 0.00551 to 0.689 µM) | 2 to 32 (≈ 2.76 to 44.1 µM) | 0.125 to 8 (≈ 0.172 to 11 µM) | 0.0005 to 0.063 (≈ 0.000689 to 0.0868 µM) | 0.0005 to 0.063 (≈ 0.000689 to 0.0868 µM) | 0.0002 to 0.125 (≈ 0.000276 to 0.172 µM)
CO/N=C1/c2c3c(C)c(O)c4c2/C(=N/OC)C=C(NC(=O)/C(C)=C\C=C\[C@H](C)[C@H](O)[C@@H](C)[C@@H](O)[C@@H](C)[C@H](OC(C)=O)[C@H](C)[C@@H](OC)/C=C/O[C@@]1(C)O3)C4=O [Example 5, 4, 11-Dideoxy-4, 11-dimethoxyiminorifamycin S] | 0.03 to 2 (≈ 0.0398 to 2.65 µM) | 0.5 to 64 (≈ 0.663 to 84.9 µM) | 0.004 to 0.5 (≈ 0.00531 to 0.663 µM) | 0.125 to 16 (≈ 0.166 to 21.2 µM) | 0.25 to 32 (≈ 0.332 to 42.4 µM) | 0.004 to 0.5 (≈ 0.00531 to 0.663 µM) | 2 to 32 (≈ 2.65 to 42.4 µM) | 0.125 to 8 (≈ 0.166 to 10.6 µM) | 0.0005 to 0.063 (≈ 0.000663 to 0.0836 µM) | 0.0005 to 0.063 (≈ 0.000663 to 0.0836 µM) | 0.0002 to 0.125 (≈ 0.000265 to 0.166 µM)
CO[C@H]1/C=C/O[C@@]2(C)Oc3c(C)c(O)c4c(c3/C2=N/O)C(=O)C=C(NC(=O)/C(C)=C\C=C\[C@H](C)[C@H](O)[C@@H](C)[C@@H](O)[C@@H](C)[C@H](OC(C)=O)[C@@H]1C)C4=O [Example 7, 11-Deoxy-11-hydroxyiminorifamycin S] | 0.03 to 2 (≈ 0.0422 to 2.81 µM) | 0.5 to 64 (≈ 0.703 to 90 µM) | 0.004 to 0.5 (≈ 0.00563 to 0.703 µM) | 0.125 to 16 (≈ 0.176 to 22.5 µM) | 0.25 to 32 (≈ 0.352 to 45 µM) | 0.004 to 0.5 (≈ 0.00563 to 0.703 µM) | 2 to 32 (≈ 2.81 to 45 µM) | 0.125 to 8 (≈ 0.176 to 11.3 µM) | 0.0005 to 0.063 (≈ 0.000703 to 0.0886 µM) | 0.0005 to 0.063 (≈ 0.000703 to 0.0886 µM) | 0.0002 to 0.125 (≈ 0.000281 to 0.176 µM)
CO[C@H]1/C=C/O[C@@]2(C)Oc3c(C)c(O)c4c(c3/C2=N/OC(=O)c2ccncc2)C(=O)C=C(NC(=O)/C(C)=C\C=C\[C@H](C)[C@H](O)[C@@H](C)[C@@H](O)[C@@H](C)[C@H](OC(C)=O)[C@@H]1C)C4=O [Example 8, 11-Deoxy-11-(4-pyridylcarboxy)iminorifamycin S] | 0.03 to 2 (≈ 0.0368 to 2.45 µM) | 0.5 to 64 (≈ 0.613 to 78.4 µM) | 0.004 to 0.5 (≈ 0.0049 to 0.613 µM) | 0.125 to 16 (≈ 0.153 to 19.6 µM) | 0.25 to 32 (≈ 0.306 to 39.2 µM) | 0.004 to 0.5 (≈ 0.0049 to 0.613 µM) | 2 to 32 (≈ 2.45 to 39.2 µM) | 0.125 to 8 (≈ 0.153 to 9.81 µM) | 0.0005 to 0.063 (≈ 0.000613 to 0.0772 µM) | 0.0005 to 0.063 (≈ 0.000613 to 0.0772 µM) | 0.0002 to 0.125 (≈ 0.000245 to 0.153 µM)
CO[C@H]1/C=C/O[C@@]2(C)Oc3c(C)c(O)c4c(c3/C2=N/OC(C)=O)C(=O)C=C(NC(=O)/C(C)=C\C=C\[C@H](C)[C@H](O)[C@@H](C)[C@@H](O)[C@@H](C)[C@H](OC(C)=O)[C@@H]1C)C4=O [Example 9, 11-Deoxy-11-acetoxyiminorifamycin S] | 0.03 to 2 (≈ 0.0399 to 2.66 µM) | 0.5 to 64 (≈ 0.664 to 85 µM) | 0.004 to 0.5 (≈ 0.00531 to 0.664 µM) | 0.125 to 16 (≈ 0.166 to 21.3 µM) | 0.25 to 32 (≈ 0.332 to 42.5 µM) | 0.004 to 0.5 (≈ 0.00531 to 0.664 µM) | 2 to 32 (≈ 2.66 to 42.5 µM) | 0.125 to 8 (≈ 0.166 to 10.6 µM) | 0.0005 to 0.063 (≈ 0.000664 to 0.0837 µM) | 0.0005 to 0.063 (≈ 0.000664 to 0.0837 µM) | 0.0002 to 0.125 (≈ 0.000266 to 0.166 µM)
